{
  "source": "paper PMC9611734",
  "about": "“Alkaloid Derivative (Z)-3β-Ethylamino-Pregn-17(20)-en Inhibits Triple-Negative Breast Cancer Metastasis and Angiogenesis by Targeting HSP90α” (Molecules, 2022)",
  "target": "T1, HSP90α (Homo sapiens, UniProt P07900)",
  "T1 construct": "gene HSP90AA1; Recombinant human HSP90 alpha protein (ab80369)",
  "assay": "SPR (Biacore T200, […] binding model); supported by CETSA for HSP90 in MDA-MB-231 cells",
  "data": [
    {"smiles": "C/C=C1/CC[C@H]2[C@@H]3CCC4C[C@@H](NCC)CC[C@]4(C)[C@H]3CC[C@]12C", "note": "(stereo partly drawn) [compound 1, (Z)-3β-ethylamino-pregn-17(20)-en]", "values": [
      {"measurement": "Kd", "result": 21, "unit": "µM"}
    ]}
  ]
}
